For this experiment, the target named is NHR-86 (Caenorhabditis elegans, UniProt Q965W2). Briefly: intrinsic tryptophan fluorescence quenching of purified LBD. It counts as binding.

A word on the Kd: it is the constant that tells how readily two partners part at equilibrium. Low readings indicate tighter binding, high ones weaker binding.

Sequence of NHR-86 (Q965W2 130-405): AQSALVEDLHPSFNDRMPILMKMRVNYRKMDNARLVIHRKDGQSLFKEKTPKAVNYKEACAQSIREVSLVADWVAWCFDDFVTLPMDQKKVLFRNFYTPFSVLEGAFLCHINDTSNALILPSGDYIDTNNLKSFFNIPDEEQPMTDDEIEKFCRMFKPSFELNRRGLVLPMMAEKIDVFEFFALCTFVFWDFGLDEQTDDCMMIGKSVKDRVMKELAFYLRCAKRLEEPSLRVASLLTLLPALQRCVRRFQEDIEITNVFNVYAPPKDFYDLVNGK

As for `NC(=O)c1cccc2nc3ccccc3nc12` [PCN, phenazine-1-carboxamide], the Kd amounted to 24.2 µM.

The record behind these values is publication PMC10101930 (Immunity, 2023).
